6 compounds from patent US11266609B2, “Bacitracin and/or daptomycin combined with cannabidiol for treatment of bacterial infections” (priority 2017, dated 2022) can be followed below.

One assay concerns MRSA USA300 FPR3757. The experiment in a line: microbe, parasite or virus in culture. Type of assay: cell-based, Staphylococcus aureus. The following applies: for FIC Index: combination of cannabidiol with the respective antibiotic, synergy <= 0.5, no interaction 0.5-4.0, antagonism > 4. Here is the method:
(§1) The resistant bacterium MRSA USA300 FPR3757 (USA300) was the main used bacterium throughout this study. MRSA was grown in Brain Heart Infusion (BHI) or Müeller Hinton (MH) media on plate or in liquid cultures with agitation at 37° C.
(§2) An ON culture was made by inoculating a bacterial colony in either 5 mL of MH or BHI and incubating at 37° C. with agitation. The antibiotic of interest was added to a row of a sterile 96-well plate (VWR) and a serial dilution was made down the rows containing 50 μL of MH or BHI media in each well, resulting in 2-fold dilution for each row. The ON culture was diluted to OD625 at approximately 1.0 followed by a 1:100 dilution to approximately OD625=0.01 of which 50 μL was added to each well to a final volume of 100 μL. The 96-well plate was incubated at 37° C. with shaking at 225 rpm for approximately 18-24 hours. Presence and absence of growth were determined by visual appearance.
B) The other screen was based on fractional inhibitory concentration (FIC) index.

In the next assay the test system is MRSA USA300. The experiment in a line: Micro dilution growth experiments using oCelloScope, CBD combined with antibiotics (FIG. 1). The following applies: for synergistic potential in growth curves: combination with CBD 1-2 μg/mL, bacitracin 16, daptomycin 4, tetracycline 16, fosfomycin 16, dicloxacillin 0.0625, chlorhexidine 0.25, vancomycin 0.5 μg/mL (FIG. 1). Format: cell-based, Staphylococcus aureus. How it is done:
BCA: Background corrected absorption. ? Growth control, ? CBD, -▴- Antibiotic, ? Combination.
as §1
An ON culture was made by inoculating a bacterial colony in either 5 mL of MH or BHI at incubated at 37° C. with agitation. 25 μL of specific concentrations of the antibiotic and cannabinoid to be tested was added to the desired wells of a sterile 96-well plate (Thermo Scientific). 25 μL of MH or BHI media was added to the wells only containing one of the two compounds tested. The bacterial ON culture was diluted to a final OD600 nm of 0.005 and 50 μL was dispensed into each well to a final volume of 100 μL. To decrease evaporation, 2 mL of pre-heated water was added to the corners of the 96-well plate containing cavities. The plate was placed in the oCelloScope inside an incubator at 37° C. Illumination level and focus was adjusted for each well and the growth was measured for approximately 25 hours. Measurements were performed every half an hour for the first half of the time and every hour for the last half using the UniExplorer software. Data retrieved was given in Background corrected absorption (BCA), formerly known as pixel histogram summation (PHS), an algorithm enabling determination of bacterial growth kinetics resulting from images taken with the oCelloScope camera.
A) A screen was performed using the Philips oCelloScope enabling measurements of bacterial growth in presence or absence of either cannabidiol alone or in combination with an antibiotic or antimicrobial, through a 3D scanning system in 96-well plates.

A further assay relates to E. faecalis (13-327129). The experiment in a line: microbe, parasite or virus in culture. Format: cell-based, Enterococcus faecalis. Here is the method: (§3) Additional bacteria Enterococcus faecalis (13-327129), Enterococcus faecalis (16-7418), Methicillin-resistant Staphylococcus epidermidis (933010 3F-16 b4), Listeria monocytogenes EGD, Pseudomonas aeruginosa (PA01), Salmonella typhimurium (14028), Klepsiella pneumoniae (CAS55), Vibrio cholerae (A1522), and Escherichia coli (UTI89) were either grown in BHI or Lysogeny broth (LB) media.
as §2, with “appearance. FIC index was calculated as follows (Alam M T et al. Antibacterial activity of different organic extracts of Achyranthes aspera and Cassia alata. J Sci Res. 2009).” for “appearance.”
(§4) To study the bacterial spectrum of the combination, CBD and bacitracin growth measurements of other Gram-positive bacteria tests on Enterococcus faecalis, an MRSE strain and a strain of Listeria monocytogenes were performed as described in Example 1.
(§5) The MIC for bacitracin and CBD and the respective FIC values are visualized in table 2 for the Gram-positive bacteria and are calculated based on two biological replicates.

The test system of the next assay is E. faecalis (16-7418). Description: microbe, parasite or virus in culture. Type of assay: cell-based, Enterococcus faecalis. The following applies: 16-7418. How it is done:
as §3
as §2, with “appearance. FIC index was calculated as follows (Alam M T et al. Antibacterial activity of different organic extracts of Achyranthes aspera and Cassia alata. J Sci Res. 2009).” for “appearance.”
as §4, §5

The subject of the next assay is MRSE (933010 3F-16 b4). Description: microbe, parasite or virus in culture. Format: cell-based, Methicillin-resistant Staphylococcus epidermidis. The following applies: MRSE (933010 3F-16 b4). Here is the method: as §3
as §2, with “appearance. FIC index was calculated as follows (Alam M T et al. Antibacterial activity of different organic extracts of Achyranthes aspera and Cassia alata. J Sci Res. 2009).” for “appearance.”
as §4, §5

For the next assay, the system named is L. monocytogenes EGD. The experiment in a line: microbe, parasite or virus in culture. Format: cell-based, Listeria monocytogenes. Here is the method:
as §3
as §2, with “appearance. FIC index was calculated as follows (Alam M T et al. Antibacterial activity of different organic extracts of Achyranthes aspera and Cassia alata. J Sci Res. 2009).” for “appearance.”
as §4, §5

The test system of a further assay is Vibrio cholerae (A1522). The experiment in a line: microbe, parasite or virus in culture. Type of assay: cell-based. The following applies: Vibrio cholerae (A1522); above tested concentrations. How it is done:
as §3
as §2, with “The 96-well plate was incubated at 37° C. with shaking at 225 rpm for approximately 18-24 hours.” left out, “appearance. FIC index was calculated as follows (Alam M T et al. Antibacterial activity of different organic extracts of Achyranthes aspera and Cassia alata. J Sci Res. 2009).” for “appearance.”
To further assess the spectrum of use for the combination of CBD and bacitracin, growth of Gram-negative bacteria upon treatment was measured as well as described in Example 1. […]

Converted amounts (≈) assume the structure as drawn. Positions of bridges follow the written chain, without caps; N, C: chain ends. Non-standard residues stand in square brackets, D forms with d. Residues, ends and D or L forms follow the SMILES beside them. *: point of attachment. Ileψ(thiazoline)Cys = CC[C@H](C)[C@H](N)C1=N[C@H](C(=O)*)CS1; dOrn = NCCC[C@@H](N)C(=O)O Some results are limits rather than exact numbers.

For `CCCCCc1cc(O)c2c(c1)OC(C)(CCC=C(C)C)C=C2` (stereo not drawn) [Cannabichromene (CBC), Cannabichromene], in the assay with MRSA USA300 FPR3757 (USA300), the “FIC index (with bacitracin)” value came to 0.63 and the “FIC index (with daptomycin)” value is reported as 0.63. This compound returned an MIC in the assay with MRSA USA300 FPR3757 (USA300, Table 4, unit not given) of 4.

As for `C[C@@H]1O[C@@H]1P(=O)(O)O` [Fosfomycin], the MIC with MRSA USA300 FPR3757 (Staphylococcus aureus) stood at 32 µg/mL (≈ 232 µM). Besides, the “synergistic/antagonistic potential in growth curves, lower concentration” value with MRSA USA300 (combination with CBD 1 μg/mL, fosfomycin 8 μg/mL (FIG. 1E)) was “antagonistic potential”. The “synergistic potential in growth curves” value in the assay with MRSA USA300 is “to some degree”.

Turning to `CN[C@H](CC(C)C)C(=O)N[C@H]1C(=O)N[C@@H](CC(N)=O)C(=O)N[C@H]2C(=O)N[C@H]3C(=O)N[C@H](C(=O)N[C@H](C(=O)O)c4cc(O)cc(O)c4-c4cc3ccc4O)[C@H](O)c3ccc(c(Cl)c3)Oc3cc2cc(c3O[C@@H]2O[C@H](CO)[C@@H](O)[C@H](O)[C@H]2O[C@H]2C[C@](C)(N)[C@H](O)[C@H](C)O2)Oc2ccc(cc2Cl)[C@H]1O` [Vancomycin], the MIC in the assay with MRSA USA300 FPR3757 (Staphylococcus aureus) came out at 2 µg/mL (≈ 1.38 µM). Further, the “FIC Index” value with MRSA USA300 FPR3757 (WT USA300) is on record as 2. In the assay on MRSA USA300, the “synergistic potential in growth curves” value was “no synergistic potential”.

`CC[C@H](C)[C@H](N)C1=N[C@H](C(=O)N[C@@H](CC(C)C)C(=O)N[C@H](CCC(=O)O)C(=O)N[C@H](C(=O)N[C@H]2CCCCNC(=O)[C@H](CC(N)=O)NC(=O)[C@@H](CC(=O)O)NC(=O)[C@H](Cc3cnc[nH]3)NC(=O)[C@@H](Cc3ccccc3)NC(=O)[C@H]([C@@H](C)CC)NC(=O)[C@@H](CCCN)NC2=O)[C@@H](C)CC)CS1` [Bacitracin] ({Ileψ(thiazoline)Cys}-L[dE]IK[dOrn]I[dF]H[dD]N; lactam 4-C): the MIC with MRSA USA300 FPR3757 (MRSA USA300 FPR3757, Table 2, two biological replicates) was 64 µg/mL (≈ 45 µM); in the assay on MRSA USA300 FPR3757 (WT USA300), 64 µg/mL (≈ 45 µM); in the assay on E. faecalis (13-327129) (13-327129), 128 µg/mL; in the assay with E. faecalis (16-7418), 128 µg/mL; in the assay with MRSE (933010 3F-16 b4) it was 32 µg/mL; in the assay with L. monocytogenes EGD (EGD) it was 512 µg/mL. Further, the MIC with Vibrio cholerae (A1522) was above 1024 µg/mL. The Fold decreased bacitracin is 16-32 fold with MRSA USA300 FPR3757 (MRSA USA300 FPR3757, bacitracin MIC combined with CBD compared to bacitracin alone); 16 fold with E. faecalis (13-327129) (E. faecalis (13-327129), bacitracin MIC combined with CBD compared to bacitracin alone); 64 fold in the assay on MRSE (933010 3F-16 b4) (bacitracin MIC combined with CBD compared to bacitracin alone); 8-16 fold in the assay with L. monocytogenes EGD (L. monocytogenes EGD, bacitracin MIC combined with CBD compared to bacitracin alone). Moreover, the “FIC Index” value in the assay with MRSA USA300 FPR3757 (WT USA300) turned out to be 0.30. In the assay on MRSA USA300, the “synergistic potential in growth curves” value is given as “synergistic potential”.

On to `[H]/N=C(\N/C(=N/[H])NCCCCCCNC(=N)NC(=N)Nc1ccc(Cl)cc1)Nc1ccc(Cl)cc1` [Chlorhexidine], for which the MIC in the assay with MRSA USA300 FPR3757 (Staphylococcus aureus) lay in the range of 1 to 2 µg/mL (≈ 1.98 to 3.96 µM). In addition, the “FIC Index” value in the assay with MRSA USA300 FPR3757 (WT USA300) came to 1. Further, the “synergistic potential in growth curves” value in the assay with MRSA USA300 is reported as “no synergistic potential”.

The compound `CO/N=C(\C(=O)N[C@@H]1C(=O)N2C(C(=O)O)=C(CSc3nc(=O)c(=O)[nH]n3C)CS[C@H]12)c1csc(N)n1` [Ceftriaxone] came in with an MIC in the assay on MRSA USA300 FPR3757 (Staphylococcus aureus) of 32 µg/mL (≈ 57.7 µM). For the same compound, in the assay on MRSA USA300 FPR3757 (WT USA300), the “FIC Index” value came out at 1.5.
